From the NIST ThermoML archive (doi:10.1021/je4004405)

Experiments:
[1] = 298.15 K, 101.33 kPa, Liquid
[2] = wn = mass fraction of the nth substance listed; settings: 101 kPa, Liquid; for viscosity: Capillary tube (Ostwald / Ubbelohde) method; for mass density: Pycnometric method

CCCCOCCO [2-butoxyethan-1-ol]
[1]
Settings	mass density [kg/m3]	viscosity [mPa·s]
Capillary tube (Ostwald / Ubbelohde) method	–	2.782
Pycnometric method	896.16	–

CCCCOCCO [2-butoxyethan-1-ol] + O
[2]
Settings	mass density, 298.15 K [kg/m3]	mass density, 303.15 K [kg/m3]	mass density, 308.15 K [kg/m3]	mass density, 313.15 K [kg/m3]	viscosity, 298.15 K [mPa·s]	viscosity, 303.15 K [mPa·s]	viscosity, 308.15 K [mPa·s]	viscosity, 313.15 K [mPa·s]
w1 = 0.2	986.46	982.92	980.38	977.64	1.849	1.622	1.465	1.302
w1 = 0.4	967.1	964.31	961.45	958.48	2.998	2.635	2.334	2.054
w1 = 0.6	948.1	944.74	941.59	937.57	3.918	3.394	2.921	2.539
w1 = 1	896.16	892.74	888.88	884.29	2.782	2.499	2.206	1.946
